Reference: patent US20080207532A1, “Use of Nordihydroguaiaretic Acid Derivatives in the Treatment of Drug Resistant Cancer, Viral and Microbial Infection” (Johns Hopkins University, priority 2004, published 2008)

Columns and labels:
[1] = test system: NCI/ADR-RES multidrug resistant breast cancer xenografts; assay: combination therapy against NCI/ADR-RES xenografts in nude mice; conditions: two weeks
Procedure: Nude mice bearing NCI/ADR-RES multidrug resistant breast cancer xenografts were used as a model for combination therapy to further examine synergy between M4N and paclitaxel.
T-cell deficient female nude (nu/nu) mice, 5-6 weeks of age, were purchased from Charles River Laboratories (Wilmington, Mass.) and were housed in a pathogen-free room. All experiments involving the mice were carried out in accordance with the Johns Hopkins University Animal Care and Use Committee guideline. The mice were implanted subcutaneously in both flanks with 1×10^6 NCI/ADR-RES cells suspended in Hank's balanced salt solution (HBSS). […] For intraperitoneal (i.p.) administration, M4N, maltose-M3N and paclitaxel were dissolved in a recently developed reduced cremophor solution containing 20% (v) dehydrated ethanol, 20% (v) Cremophor EL, PEG 300, <11% (v) Tween 80 (22). Daily injections of 0.05 ml were performed for each drug and drug combination.
Tumors were measured in two perpendicular dimensions once every seven days, and the tumor volumes were calculated according to the following formula: […]
where a is the width of the tumor (smaller diameter) and b is the length (larger diameter) (23). The mean tumor volume and standard error were calculated for each treatment group. Relative mean tumor volumes, (V/V0), where V is the mean tumor volume at a particular time and V0 is the mean tumor volume at day 0 (23), were determined and used to assess tumor growth inhibition (T/C value) using the following equation:
T/C(%)=Relative Mean Tumor Volume of treated/Relative Mean Volume of control×100.
The NCI standard for the minimal level for antitumor activity (T/C≦42%) was adopted (25). At the termination of the experiment the tumors were excised and fixed in formaldehyde. Tissue samples were then sent to Paragon Bioservices for histology and immunohistochemistry using antibodies against human P-glycoprotein (Pgp).
Two dosage regimens of M4N and paclitaxel, both with a constant molar ratio of 20:1 (M4N:paclitaxel), were employed as determined by in vitro testing to be synergistic as shown in Table 1. The 8 and 16 μmol m^2 doses of pactitaxel were submaximal based on values from other studies (22) and the M4N doses of 160 and 320 μmol/m^2 were arrived at by decreasing the maximum tolerated dose used in our previous study with MCF-7 breast cancer xenografts (5). An additional NDGA derivative was also tested. Maltose-M3N was developed as a water soluble alternative to M4N, however for consistency it was dissolved in the same reduced cremophor solvent system as M4N and paclitaxel for this study.

[2] = mouse, IP, IV and oral; cited from earlier work
[3] = higher regimen: M4N or Mal-M3N 320, Px 16 μmoles/m^2, i.p. daily
[4] = lower regimen: M4N 160, Px 8 μmoles/m^2, i.p. daily

Question: For `COc1ccc(C[C@@H](C)[C@@H](C)Cc2ccc(OC)c(OC)c2)cc1OC` [M4N, tetra-o-methyl nordihydroguaiaretic acid], which Deaths [1, 3] is on record?
Answer: Its Deaths is 0/7.

Question: What about the “Relative Mean Tumor Volume” value [1, 3] of the same molecule?
Answer: Its value is 1.33.

Question: What about the T/C % [1, 3] of the same molecule?
Answer: Its T/C % is 50.8%.

Question: And the Deaths [1, 4]?
Answer: The Deaths was 0/7.

Question: And the “Mean Body Weight Change” value [1, 4]?
Answer: Its value is “+0.2 g/mouse”.

Question: And the “Relative Mean Tumor Volume” value [1, 4]?
Answer: The value was 1.70.

Question: And the T/C % [1, 4]?
Answer: The T/C % was 64.9%.

Question: And the “level of drug in the blood” value [2]?
Answer: Its value is “extremely low and only presents transiently”.
